Legend:
[1] = esterase cleavage / half-life in rat blood plasma; assay type: in vitro ADME; settings: for esterase cleavage: after 1 h
Experimental: (§1) Almost 100 % esterase cleavage was found in rat blood plasma after 1 h, whereas about 70 % of the prodrug was cleaved within 4 hours in human blood plasma.
(§2) The half-life of Benzoyloxy(methoxy)carbonyl-Nphenethyl-Mirabegron in rat blood plasma and in human blood plasma was less than 0.5 h. Almost 100 % esterase cleavage was found in rat blood plasma after 1 h, whereas almost 100 % of the prodrug was cleaved within 4 hours in human blood plasma.

[2] = esterase cleavage / half-life in human blood plasma; assay type: in vitro ADME; settings: for prodrug cleaved (esterase cleavage): within 4 hours
Experimental: as §1, §2

[3] = oral administration to rats, pharmacokinetics compared with Mirabegron; assay type: in vivo; settings: oral administration to Sprague Dawley rats, compared to the parent compound Mirabegron

Row | SMILES | half-life [1] | esterase cleavage [1] [%] | half-life [2] | prodrug cleaved (esterase cleavage) [2] | Cmax [3] | Tmax [3]
1 | Nc1nc(CC(=O)Nc2ccc(CCN(C[C@H](O)c3ccccc3)C(=O)OCOC(=O)c3ccccc3)cc2)cs1 [Benzoyloxy(methoxy)carbonyl-Nphenethyl-Mirabegron] | less than 0.5 h | ~100 | less than 0.5 h | ~100% | – | –
2 | CC(OC(=O)C(C)C)OC(=O)N(CCc1ccc(NC(=O)Cc2csc(N)n2)cc1)C[C@H](O)c1ccccc1 (stereo partly shown) [Enacarbil-Nphenethyl-Mirabegron] | less than 0.5 h | ~100 | less than 2.5 h | about 70% | higher | earlier

— patent EP3360866B1, “[…]” (Alfred E. Tiefenbacher (GmbH & Co. KG), priority 2017, dated 2018)
